Measurements: patent US7902185B2, “Treatment of neurodegenerative diseases using proteasome modulators” (ALS Therapy Development Foundation, Inc., priority 2002, dated 2011)
Where two headings read alike, the source gives them in different places.

Assays:
[1] = system: ALS patient; assay: Ritonavir treatment of an ALS patient; assay type: in vivo, human; settings: one patient
From the text: The patient was on ventilator and non-ambulatory. The patient was paralyzed below the waist except the neck region, and communicated with head movement using Morse code based computer keys. […] The biceps and forearms of the patient were paralyzed for several years.
After administering Ritonavir® for nine months, the patient underwent neurological examination.

[2] = system: IκB degradation and NF-κB mediated signal transduction; settings: at high doses (approximately 100 μM); cited from earlier work
[3] = Maximal tolerated dose in the mouse studies; assay type: in vivo; settings: dose of these studies is quite close to it
Description: The dose of Ritonavi® in these studies (50 mg/Kg) is quite close to its maximal tolerated dose.

[4] = system: AIDS patients; settings: human, in vivo; cited from earlier work
[5] = system: SOD1 G93A mouse model of ALS; assay: Neurological score in SOD1 G93A mouse model of ALS; assay type: in vivo; settings: for Neurological score significance (Males & Females combined): p value, mixed piece wise linear analysis
Description: Neurological Scoring: From day 85 onward, neurological score was recorded on a 4-point scale: • 0=Normal reflex on the hind limbs (animal will splay its hind limbs when lifted by its tail) • 1=Abnormal reflex (Lack of splaying of hind limbs when animal is lifted by the tail). • 2=Abnormal reflex and visible evidence of paralysis • 3=Lack of reflex and total paralysis of hind limbs. • 4=Inability to right themselves when placed on the sides in 30 seconds or found dead. The animals are sacrificed at this stage if alive.

[6] = system: SOD1 G93A mouse model of ALS; assay: Survival in SOD1 G93A mouse model of ALS; settings: for Female (% effect on survival) / Female (Days) survival: females; for Combined (% effect on survival) / Combined (Days) survival: males+females; for Combined (Days) survival / Female (Days) survival / Male (Days) survival: mean; for Female (Days) survival / Male (Days) survival: treated; for Male (Days) survival / Male (% effect on survival): males;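 for all read-outs here: heterozygous transgenic SOD1 G93A mice dosed from 60 days of age until death, checked daily for death, compared with vehicle-treated controls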
Description: Model Description: The SOD1 G93A (high copy) mouse model is a mouse that carries 25 copies of the human G93A SOD mutation and is driven by the endogenous promoter.
Murine ALS model: Heterozygous transgenic mice carrying the human SOD-1 (G93A) gene were obtained from Jackson Laboratory (Bar Harbor, Me., USA) and experiments were performed under IRB protocol at Massachusetts College of Pharmacy.
Control Drug and Pharmacological Agent Preparation and Delivery: The drugs were formulated in suitable vehicles and control groups were given the same vehicle as treatment. […] Mice were treated from 60 days of age until death and were monitored daily for weight, neurological score and death.
Statistical Analysis: Statistical analysis on the neurological score, body weight and survival was done by utilizing ANOVA, Kaplan Meier, t-test, Cox's proportional hazards regression model and mixed linear model methods. All statistical analysis was performed using standard procedures known in the art.

[7] = molecular target: LMP7 component of the immunoproteosome (Homo sapiens, UniProt P28062); settings: cited from earlier work
[8] = molecular target: T1, caspase 3 (Homo sapiens, UniProt P42574); settings: cited from earlier work
T1 sequence (P42574 29-277): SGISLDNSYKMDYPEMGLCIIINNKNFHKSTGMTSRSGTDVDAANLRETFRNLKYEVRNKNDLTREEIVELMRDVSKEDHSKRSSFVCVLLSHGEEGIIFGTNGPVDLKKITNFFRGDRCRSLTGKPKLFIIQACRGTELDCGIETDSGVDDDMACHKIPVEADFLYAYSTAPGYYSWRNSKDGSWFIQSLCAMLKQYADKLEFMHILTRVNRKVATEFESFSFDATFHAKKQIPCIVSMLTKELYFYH

[9] = system: antigen processing and MHC I expression; settings: cited from earlier work
[10] = system: experimental autoimmune encephalomyelitis (EAE); settings: previous animal efficacy studies, cited from earlier work
[11] = in vivo; cited from earlier work
[12] = system: proteasomal chymotrypsin activity; settings: at 5 uM concentration; cited from earlier work
[13] = system: cell proliferation; settings: by arresting cells in the GI phase the cell cycle; cited from earlier work
[14] = system: patients with ALS; settings: Borras-Blasco et al. (1998); cited from earlier work
[15] = system: proteasome; settings: at very high concentrations; cited from earlier work
[16] = after nine months of administration
[17] = Combined Ritonavir studies (100% Litter matched), vs control
[18] = Combined Ritonavir studies (100% Litter matched)
[19] = study Ritonavir-1, 50 mg/Kg/day IP
[20] = study Ritonavir-2, 50 mg/Kg/day IP
[21] = study Ritonavir-3, 50 mg/Kg/day IP

For `CC(C)c1nc(CN(C)C(=O)N[C@H](C(=O)N[C@@H](Cc2ccccc2)C[C@H](O)[C@H](Cc2ccccc2)NC(=O)OCc2cncs2)C(C)C)cs1` (relative stereo) [Ritonavir, 10-Hydroxy-2-methyl-5-(1-methylethyl)-4-thiazolyl]-3,6-dioxo-8,11-bis (phenylmethyl)-2,4,7,12-tetraazatridecan-13-oic acid, 5-thiazolylmethyl ester, [5S-(5R*,8R*,10R*,11R*)]], the “therapeutic effects in an ALS patient” value ([1]; 400 mg/day for about nine months) was “ameliorating the effects of ALS, slowing progression of the disease, and improving survival”, the “time until beneficial therapeutic effects were experienced” value ([1]; 400 mg/day) was “after three weeks” and the “diaphragm strength (neurological examination)” value [1, 16] was “gained enough strength to dislodge a tracheostomy cuff when sneezing”. For the same compound, the pectoral muscle strength [1, 16] was “gained significant strength”, the “swallowing (neurological examination)” value [1, 16] was “able to swallow” and the “muscles that had been paralyzed for years” value ([1]; after treatment) was “again under conscious control and showed electrical nerve activity”. The “inhibition of IκB degradation and NF-κB mediated signal transduction” value [2] was “inhibit”, the maximal tolerated dose [3] was roughly 50 mg/kg and the “toleration in AIDS patients” value [4] was “good toleration”. The “Neurological score significance (Males & Females combined)” value (“Neurological score significance” for short) ([5]; study Ritonavir-1) was “p < 0.0001”, the “Neurological score significance” value ([5]; study Ritonavir-2) was “p < 0.0001” and the “Neurological score significance” value ([5]; study Ritonavir-3) was “p = 0.0007”. The “disease progression (neurological score), overall conclusion” value ([5]; three separate studies) was “reproducible slowing”, the “Female (% effect on survival)” value [6, 17] was −1% and the “Combined (% effect on survival)” value [6, 17] was 2%. For the same compound, the “Combined (Days) survival” value ([6]; Combined Ritonavir studies (100% Litter matched), treated N=48) was 141 days, the “Female (Days) survival” value [6, 18] was 138 days and the “Male (Days) survival” value [6, 18] was 144 days. The “Female (% effect on survival)” value ([6]; study Ritonavir-1, vs control) was “None”, the “Combined (% effect on survival)” value ([6]; study Ritonavir-1, (mean treated-mean control)/mean control*100) was 5% and the “Male (% effect on survival)” value ([6]; study Ritonavir-1, vs control) was 10%. For the same compound, the “Combined (Days) survival” value ([6]; study Ritonavir-1, treated N=20, 50 mg/Kg/day IP) was 145 days, the “Female (Days) survival” value [6, 19] was 141 days and the “Male (Days) survival” value [6, 19] was 149 days. For the same compound, the “Female (% effect on survival)” value ([6]; study Ritonavir-2, vs control) was 6%, the “Combined (% effect on survival)” value ([6]; study Ritonavir-2, vs control) was 7% and the “Male (% effect on survival)” value ([6]; study Ritonavir-2, vs control) was 8%. The “Combined (Days) survival” value ([6]; study Ritonavir-2, treated N=18, 50 mg/Kg/day IP) was 149 days, the “Female (Days) survival” value [6, 20] was 144 days and the “Male (Days) survival” value [6, 20] was 153 days. For the same compound, the “Female (% effect on survival)” value ([6]; study Ritonavir-3, vs control) was −5%, the “Combined (% effect on survival)” value ([6]; study Ritonavir-3, vs control) was 2% and the “Male (% effect on survival)” value ([6]; study Ritonavir-3, vs control) was 7%. The “Combined (Days) survival” value ([6]; study Ritonavir-3, treated N=18, 50 mg/Kg/day IP) was 137 days, the “Female (Days) survival” value [6, 21] was 134 days and the “Male (Days) survival” value [6, 21] was 139 days. For the same compound, the “survival, overall conclusion” value ([6]; three separate studies) was “prolongation”, the “activity compared with positive control riluzole” value ([6]; three studies, based on neurological score and survival data) was “more active” and the “binding to the LMP7 component of the immunoproteosome” value [7] was “binds”. For the same compound, the “activity of caspase 3” value [8] was “inhibit”, the “antigen processing and MHC I expression” value [9] was “decreased” and the “effect in the EAE model” value [10] was “protective”. The “effect in the EAE model” value ([10]; listed as pharmacological agent) was “prevented the development”, the “plasma levels, female animals compared to males” value [11] was “higher plasma levels” and the “inhibition of proteasomal chymotrypsin activity” value [12] was “inhibition”. For the same compound, the cell proliferation [13] was “suppress”.

For `Nc1nc2ccc(OC(F)(F)F)cc2s1` [Riluzole], the “muscular strength of ALS patients” value [14] is listed as “does not appear to provide an improvement”.

For `CC(C)(C)NC(=O)[C@@H]1C[C@@H]2CCCC[C@@H]2CN1C[C@@H](O)[C@H](Cc1ccccc1)NC(=O)[C@H](CC(N)=O)NC(=O)c1ccc2ccccc2n1` [saquinavir], the “alteration of proteasome activity” value [15] is listed as “alters proteasome activity”.
